# Source: patent publication US20110183999A1, “NOVEL POLYMORPHIC FORMS OF METHYL CARBAMATE” (BAYER SCHERING PHARMA AKTIENGESELLSCHAFT, priority 2009, published 2011)
# Tests used:
# [1] = Thermogravimetry (TGA) mass loss; assay type: physicochemical; settings: heating rate 10 Kmin^−1, open platinum crucibles, nitrogen purge
# Protocol: The TGA measurements were carried out using TGA7 and Pyris-1-TGA thermobalances from Perkin-Elmer using a heating rate of 10 Kmin^−1. The measurements were carried out in open platinum crucibles, the purge gas used was nitrogen. There was no sample preparation.
# [2] = Thermodynamic and storage stability of the solid form; assay type: physicochemical; settings: also after processing to suspensions
SMILES,Mass loss [1],Stability of the solid form (thermodynamic / storage) ([2]; listed as mesomorphous form),Stability of the solid form (thermodynamic / storage) [2]
"COC(=O)Nc1c(N)nc(-c2nn(Cc3ccccc3F)c3ncccc23)nc1N [amorphous, methyl {4,6-diamino-2-[1-(2-fluorobenzyl)-1H-pyrazolo[3,4-b]pyridin-3-yl]pyrimidin-5-yl}carbamate]",about 10 % by weight,–,–
"COC(=O)Nc1c(N)nc(-c2nn(Cc3ccccc3F)c3ncccc23)nc1N [mesomorphous, Methyl {4,6-diamino-2-[1-(2-fluorobenzyl)-1H-pyrazolo[3,4-b]pyridin-3-yl]pyrimidin-5-yl}-carbamate, reference compound]",about 8 % by weight,metastable,–
"COC(=O)Nc1c(N)nc(-c2nn(Cc3ccccc3F)c3ncccc23)nc1N [modification I, methyl {4,6-diamino-2-[1-(2-fluorobenzyl)-1H-pyrazolo[3,4-b]pyridin-3-yl]pyrimidin-5-yl}-carbamate]",<0.5 % by weight,–,thermodynamically stable and storage-stable even after processing to suspensions
"COC(=O)Nc1c(N)nc(-c2nn(Cc3ccccc3F)c3ncccc23)nc1N [modification II, methyl {4,6-diamino-2-[1-(2-fluorobenzyl)-1H-pyrazolo[3,4-b]pyridin-3-yl]pyrimidin-5-yl}carbamate]",<0.5 % by weight,–,–
"COC(=O)Nc1c(N)nc(-c2nn(Cc3ccccc3F)c3ncccc23)nc1N [modification III, methyl {4,6-diamino-2-[1-(2-fluorobenzyl)-1H-pyrazolo[3,4-b]pyridin-3-yl]pyrimidin-5-yl}carbamate]",<0.5 % by weight,–,–
"COC(=O)Nc1c(N)nc(-c2nn(Cc3ccccc3F)c3ncccc23)nc1N [modification IV, methyl {4,6-diamino-2-[1-(2-fluorobenzyl)-1H-pyrazolo[3,4-b]pyridin-3-yl]pyrimidin-5-yl}carbamate]",<1 % by weight,–,–
